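Cells were grown in 96-well plates and exposed to each compound for 48 hours at five concentrations; endpoints were interpolated linearly between bracketing concentrations, or set to the highest concentration if not reached. GI50: concentration for 50% inhibition of growth. The concentration for full growth arrest is given as TGI.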
Assays:
Experiment in all cases: NCI anticancer screen, dose series, 48 h
SK-MEL-2 melanoma = test system: SK-MEL-2 melanoma
M14 melanoma = test system: M14 melanoma
K-562 leukemia = test system: K-562 leukemia
EKVX NSCLC = test system: EKVX NSCLC
LOX IMVI melanoma = test system: LOX IMVI melanoma
BT-549 breast = test system: BT-549 breast
ACHN renal = test system: ACHN renal
NCI-H522 lung = test system: NCI-H522 lung
SF-295 CNS = test system: SF-295 CNS
HS 578T breast = test system: HS 578T breast

| Structure (SMILES) | GI50 (SK-MEL-2 melanoma) | TGI (SK-MEL-2 melanoma) | GI50 (M14 melanoma) | TGI (M14 melanoma) | GI50 (K-562 leukemia) | TGI (K-562 leukemia) | GI50 (EKVX NSCLC) | TGI (EKVX NSCLC) | GI50 (LOX IMVI melanoma) | TGI (LOX IMVI melanoma) | GI50 (BT-549 breast) | TGI (BT-549 breast) | GI50 (ACHN renal) | TGI (ACHN renal) | GI50 (NCI-H522 lung) | TGI (NCI-H522 lung) | GI50 (SF-295 CNS) | TGI (SF-295 CNS) | TGI (HS 578T breast) |
| --- | --- | --- | --- | --- | --- | --- | --- | --- | --- | --- | --- | --- | --- | --- | --- | --- | --- | --- | --- |
| COc1cc(N=Nc2ccccc2)cc(/C=N\[N-]C(N)=S)c1[O-].COc1cc(N=Nc2ccccc2)cc(/C=N\[N-]C(N)=S)c1[O-].[Fe+4] | 7.72 µM | 50.4 µM | > 100 µM | > 100 µM | 16.1 µM | > 100 µM | > 100 µM | > 100 µM |  |  |  |  |  |  |  |  |  |  |  |
| C[C@]12CC/C(=N\N)C[C@@H]1CC[C@@H]1[C@@H]2CC[C@]2(C)/C(=N/N)CC[C@@H]12 | > 100 µM | > 100 µM | > 100 µM | > 100 µM | > 100 µM | > 100 µM | > 100 µM | > 100 µM | > 100 µM | > 100 µM | > 100 µM | > 100 µM | > 100 µM | > 100 µM | > 100 µM | > 100 µM | > 100 µM | > 100 µM |  |
| CNS(=O)(=O)NN(C)S(=O)(=O)c1ccc(Cl)cc1 |  | > 100 µM |  | > 100 µM |  | > 100 µM |  | > 100 µM |  | > 100 µM |  |  |  | > 100 µM |  | > 100 µM |  | > 100 µM |  |
| OCCN(CCO)c1cccc(N(CCO)CCO)c1 |  | > 100 µM |  | > 100 µM |  | > 100 µM |  | > 100 µM |  | > 100 µM |  |  |  | > 100 µM |  | > 100 µM |  | > 100 µM |  |
| Cn1ccnc1C(c1nccn1C)C(C)(C)[N+](=O)[O-] |  | > 100 µM |  | > 100 µM |  | > 100 µM |  | > 100 µM |  | > 100 µM |  |  |  | > 100 µM |  | > 100 µM |  | > 100 µM |  |
| O=C1CCC2CCc3cccc4oc1c2c34 (stereo not given) |  |  |  | > 100 µM |  | > 100 µM |  | > 100 µM |  | > 100 µM |  |  |  | > 100 µM |  |  |  | 84.1 µM |  |
| O=C1O[C@H](C(Cl)(Cl)Cl)N2CCCC12 (stereo not given in full) |  | > 100 µM |  | > 100 µM |  | > 100 µM |  | > 100 µM |  | > 100 µM |  |  |  | > 100 µM |  | > 100 µM |  | > 100 µM |  |
| O=[N+]([O-])c1cc(O)c(O)cc1-c1cn2ccsc2n1 | 57.1 µM | > 100 µM | 20 µM | 57.7 µM |  |  | > 100 µM | > 100 µM | 52 µM | > 100 µM |  |  | 42.6 µM | > 100 µM | 33 µM | > 100 µM | 31.2 µM | 91.3 µM | 36 µM |
| CC(C)COC(=O)N1N=NC2C3OC(CC3=O)C21 (stereo not given) |  | > 100 µM |  | > 100 µM |  | > 100 µM |  | > 100 µM |  | > 100 µM |  |  |  | > 100 µM |  | > 100 µM |  | > 100 µM |  |
| Cn1cc(NC(=O)c2cc(NC(=O)Nc3cc(C(=O)Nc4cc(C(=O)NCCC(=N)N)n(C)c4)n(C)c3)cn2C)cc1C(=O)NCCC(=N)N |  |  |  | 57.2 µM |  | > 100 µM |  | > 100 µM |  | 70.1 µM |  |  |  | 57.9 µM |  |  |  | 86 µM |  |
| CC1=C(SCc2ccccc2)C(=O)c2ccccc2C1=O |  | 40.1 µM |  |  |  | > 100 µM |  | 44 µM |  | 38.2 µM |  | 32.1 µM |  | 27.2 µM |  |  |  | 32.5 µM |  |

— PubChem BioAssay (NCI)
